Laboratory results as given in patent US10377746B2, “Indolin-2-one derivatives” (Hoffmann-La Roche Inc., priority 2015, dated 2019).
pIC50: −log10 of the molar value.

Key:
[1] = target: mouse ENT-1 transporter (Mus musculus (Mouse), UniProt Q9JIM1); assay: Determination of adenosine transport activity (ENT1, [3H]-adenosine uptake); assay type: cell-based; details: stable cells expressing mouse ENT-1; [2,8-3H]-adenosine 6 nM, 20 min
Description: To measure adenosine transport activity of ENT-1 mammalian cells, stable cells expressing the mouse ENT-1 transporter were plated on day 1 in 96-well culture plates at the density of 60,000 cells/well, in complete DMEM/F12 medium supplemented with glutamax, 10% FBS and 10 μg/ml puromycin. On day 2, the medium was aspirated and the cells were washed twice with uptake buffer (10 mM Hepes-Tris, pH 7.4 containing 150 mM NaCl, 1 mM
CaCl2, 2.5 mM KCl, 2.5 mM MgSO4, 10 mM D-glucose) (UB). For inhibition experiments, cells were then incubated at RT with various concentrations of compounds with 1% DMSO final. Non-specific uptake was defined in the presence of 10 μM S-(4-Nitrobenzyl)-6-thioinosine (NBTI, Sigma Cat #N2255).
A solution containing [2,8-^3H]-adenosine 6 nM (40 Ci/mmol, American Radiolabeled chemicals Inc, Cat #ART 0287A) was then immediately added to the wells. The plates were then incubated for 20 min with gentle shaking and the reaction was stopped by aspiration of the mixture and washing (three times) with ice-cold UB. The cells were lysed by the addition of scintillation liquid, shaken 3 hours and the radioactivity in the cells was estimated using a microplates scintillation counter (TopCount NXT, Packard).

[2] = test system: L-687,414-induced hyperlocomotion; assay: L-687,414-induced hyperlocomotion; assay type: in vivo, mouse; details: mice; 30 mg/kg ip, 15 min before 50 mg/kg s.c. L-687,414
Description: The described compounds of formula I reduce L-687,414-induced hyperlocomotion. This was assessed by using a computerized Digiscan 16 Animal Activity Monitoring System (Omnitech Electronics, Columbus, Ohio) to quantify locomotor activity. Animals were kept under a 12 h light/dark cycle and experiments were performed during the light period. Each activity monitoring chamber consisted of a Plexiglas box (41×41×28 cm; W×L×H) with sawdust bedding on the floor surrounded by invisible horizontal and vertical infrared sensor beams. The test boxes were divided by a Plexiglas cross providing each mouse with 20×20 cm of moving space. Cages were connected to a Digiscan Analyzer linked to a computer that constantly collected the beam status information. Records of photocell beam interruptions for individual animals were taken every 5 min over the duration of the experimental session and the sum of the first 6 periods was used as the final parameter. At least 8 mice were used in each treatment group. Compounds were administered i.p. 15 min before a s.c. injection of 50 mg/kg of L-687,414. Mice were then transferred from their home cage to the recording chambers for a 15-min habituation phase allowing free exploration of the new environment. Horizontal activity was then recorded for a 30-min time period. The % inhibition of L-687,414-induced hyperlocomotion was calculated according to the equation: ((Veh+L-687,414horizontal activity−drug+L-687,414horizontal activity)/Veh+L-687,414horizontal activity)×100
ID50 values, defined as doses of each compound producing 50% inhibition of L-687,414-induced hyperlocomotion, were calculated by linear regression analysis of a dose-response data using an Excel-based computer-fitting program.
As data was not presupposed to be normally distributed, groups treated with test compounds were statistically compared with the control (vehicle-treated) group using one-tailed Mann Whitney U tests. […]

[3] = test system: behavioral signature of compound-treated mice; assay: SmartCube behavioral signature similarity analysis; assay type: in vivo, mouse; details: for SmartCube similarity to major classes of compounds: i.p., in words; for discrimination rate vs Clozapine (1.0 mg/kg) / discrimination rate vs Olanzapine (0.25 mg/kg) / discrimination rate vs Risperidone (0.06 mg/kg): rate <=0.70 = similar
Description: In addition to the reversal of L-687,414 induced hyperlocomotion experiment as described above, some compounds of the present invention have been tested in SmartCube®, an automated system in which the behaviors of compound-treated mice in response to multiple challenges are captured by digital video and analyzed with computer algorithms (Roberds et al., Frontiers in Neuroscience, 2011, Vol. 5, Art. 103, 1-4; Vadim Alexandrov, Dani Brunner, Taleen Hanania, Emer Leahy Eur. J. Pharmacol. 2015, 750, 82-99). In this way, the neuro-pharmacological effects of a test compound can be predicted by similarity to major classes of compounds, such as antipsychotics, anxiolytics and antidepressants.
SmartCube® was used to compare the behavioral signature of a test compound to a database of behavioral signatures obtained from a large set of clinically approved reference drugs, grouped per indications. In this way, the neuro-pharmacological effects of a test compound can be predicted by similarity to major classes of compounds, such as antipsychotics, anxiolytics and antidepressants. This approach is ideally suited to screen collections of existing drugs or drug candidates with previously unknown neuropharmacology, which could expedite the development of new and unexpected treatments for psychiatric disorders.
Some compounds of the present invention were injected i.p. at different doses 15 minutes before the test. At least 8 mice were used in each treatment group. Digital videos of the subjects were processed with computer vision algorithms to extract over 2000 dependent measures including frequency and duration of many different behavioral states. The results of the classifications are presented as bar charts for each compound and dose (mg/kg), the Y-axis indicates the relative probability that the test compound will show efficacy in the specific CNS indication.
Compounds of the present invention show similar signatures to those of atypical antipsychotics. An independent analysis was performed on the unclassified data to determine the similarity of the example compounds to active doses of known atypical antipsychotics. For this analysis, we use discrimination rate as the measure of separability between the two drugs, i.e. one drug's “distinguishability” from another. A rate equal to 50% (or 0.5) corresponds to zero distinguishability. […] In most cases, the example compounds show a similarity to risperidone, clozapine and olanzapine with a discrimination rate of ≤0.70.

Chain of mouse ENT-1 transporter (Q9JIM1 whole entry): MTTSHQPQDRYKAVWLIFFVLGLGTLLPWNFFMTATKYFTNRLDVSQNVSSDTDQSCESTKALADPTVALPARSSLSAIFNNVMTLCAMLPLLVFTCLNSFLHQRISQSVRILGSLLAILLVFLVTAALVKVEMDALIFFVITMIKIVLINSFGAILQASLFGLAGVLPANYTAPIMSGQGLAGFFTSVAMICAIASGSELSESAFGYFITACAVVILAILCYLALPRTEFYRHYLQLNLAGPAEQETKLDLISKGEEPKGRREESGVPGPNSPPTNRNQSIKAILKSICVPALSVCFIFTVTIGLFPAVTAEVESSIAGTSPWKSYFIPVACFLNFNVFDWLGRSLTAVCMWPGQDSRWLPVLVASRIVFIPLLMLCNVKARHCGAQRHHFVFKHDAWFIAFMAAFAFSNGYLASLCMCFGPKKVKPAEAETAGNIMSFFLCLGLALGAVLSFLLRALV

pIC50 [1] | Molecule | other results
7.41 | Cc1ncc(-c2ccc3c(c2)N(c2cnc(C4CC4)c(S(C)(=O)=O)c2)C(=O)C3(C)C)cn1 [Example 14, 1-(6-Cyclopropyl-5-(methylsulfonyl)pyridin-3-yl)-3,3-dimethyl-6-(2-methylpyrimidin-5-yl)indolin-2-one] | –
6.51 | Cc1cncc(-c2ccc3c(c2)N(c2cncc(S(C)(=O)=O)c2)C(=O)C3(C)C)c1 [Example 16, 3,3-Dimethyl-6-(5-methylpyridin-3-yl)-1-(5-(methylsulfonyl)pyridin-3-yl)indolin-2-one] | –
7.57 | Cc1ncc(-c2ccc3c(c2)N(c2cncc(S(C)(=O)=O)c2)C(=O)C3(C)C)cc1F [Example 17, 6-(5-Fluoro-6-methylpyridin-3-yl)-3,3-dimethyl-1-(5-(methylsulfonyl)pyridin-3-yl)indolin-2-one] | –
7.57 | Cc1ncc(-c2ccc3c(c2)N(c2cnc(S(C)(=O)=O)cn2)C(=O)C3(C)C)cn1 [Example 18, 3,3-Dimethyl-6-(2-methylpyrimidin-5-yl)-1-(5-(methylsulfonyl)pyrazin-2-yl)indolin-2-one] | –
6.80 | Cc1ncc(-c2ccc3c(c2)N(c2ccc(S(C)(=O)=O)cn2)C(=O)C3(C)C)cn1 [Example 19, 3,3-Dimethyl-6-(2-methylpyrimidin-5-yl)-1-(5-(methylsulfonyl)pyridin-2-yl)indolin-2-one] | Inhibition, ip of L-687,414-induced hyperlocomotion [2]: 93.5%; SmartCube similarity to major classes of compounds [3]: similarity to atypical antipsychotics; discrimination rate vs Clozapine (1.0 mg/kg) ([3]; test compound 5 mg/kg i.p.): 0.54; discrimination rate vs Olanzapine (0.25 mg/kg) ([3]; test compound 5 mg/kg i.p.): 0.52; discrimination rate vs Risperidone (0.06 mg/kg) ([3]; test compound 5 mg/kg i.p.): 0.50
6.64 | Cc1ncc(-c2ccc3c(c2)N(c2cncc(S(C)(=O)=O)c2)C(=O)C32CCC2)cn1 [Example 20, 6′-(2-Methylpyrimidin-5-yl)-1′-(5-(methylsulfonyl)pyridin-3-yl)spiro[cyclobutane-1,3′-indolin]-2′-one] | –

The remaining lines, values behind:

Molecule | pIC50 [1] | other results
3,3-Dimethyl-6-(2-methyl-1-oxidopyrimidin-1-ium-5-yl)-1-(6-methylsulfonylpyrazin-2-yl)indol-2-one [Example 15] | 6.66 | –
Cc1ncc(-c2ccc3c(c2)N(c2ccc4ccsc4c2)C(=O)C3(C)C)cn1 [Example 1, 1-(Benzo[b]thiophen-6-yl)-3,3-dimethyl-6-(2-methylpyrimidin-5-yl)indolin-2-one] | 6.72 | –
Cc1ncc(-c2ccc3c(c2)N(c2cccc4sccc24)C(=O)C3(C)C)cn1 [Example 2, 1-(Benzo[b]thiophen-4-yl)-3,3-dimethyl-6-(2-methylpyrimidin-5-yl)indolin-2-one] | 6.07 | –
Cc1ncc(-c2ccc3c(c2)N(c2cncc(S(C)(=O)=O)c2)C(=O)C3(C)C)cn1 [Example 3, 3,3-Dimethyl-6-(2-methylpyrimidin-5-yl)-1-(5-(methylsulfonyl)pyridin-3-yl)indolin-2-one] | 7.49 | Inhibition, ip of L-687,414-induced hyperlocomotion [2]: 92.8%; SmartCube similarity to major classes of compounds [3]: similarity to atypical antipsychotics; discrimination rate vs Clozapine (1.0 mg/kg) ([3]; test compound 3 mg/kg i.p.): 0.58; discrimination rate vs Olanzapine (0.25 mg/kg) ([3]; test compound 3 mg/kg i.p.): 0.60; discrimination rate vs Risperidone (0.06 mg/kg) ([3]; test compound 3 mg/kg i.p.): 0.67
Cc1ncc(-c2ccc3c(c2)N(c2cncc(S(C)(=O)=O)n2)C(=O)C3(C)C)cn1 [Example 4, 3,3-Dimethyl-6-(2-methylpyrimidin-5-yl)-1-(6-(methylsulfonyl)pyrazin-2-yl)indolin-2-one] | 7.40 | –
Cc1ncc(-c2ccc3c(c2)N(c2cccc(S(C)(=O)=O)c2)C(=O)C3(C)C)cn1 [Example 5, 3,3-Dimethyl-6-(2-methylpyrimidin-5-yl)-1-(3-(methylsulfonyl)phenyl)indolin-2-one] | 6.97 | Inhibition, ip of L-687,414-induced hyperlocomotion [2]: 96%; SmartCube similarity to major classes of compounds [3]: similarity to atypical antipsychotics; discrimination rate vs Clozapine (1.0 mg/kg) ([3]; test compound 5 mg/kg i.p.): 0.55; discrimination rate vs Olanzapine (0.25 mg/kg) ([3]; test compound 5 mg/kg i.p.): 0.54; discrimination rate vs Risperidone (0.06 mg/kg) ([3]; test compound 5 mg/kg i.p.): 0.52
Cc1ncc(-c2ccc3c(c2)N(c2cncc(S(=O)(=O)N(C)C)c2)C(=O)C3(C)C)cn1 [Example 6, 5-(3,3-Dimethyl-6-(2-methylpyrimidin-5-yl)-2-oxoindolin-1-yl)-N,N-dimethylpyridine-3-sulfonamide] | 7.35 | –
Cc1ncc(-c2ccc3c(c2)N(c2cncc(S(=O)(=O)C(C)C)c2)C(=O)C3(C)C)cn1 [Example 7, 1-(5-(Isopropylsulfonyl)pyridin-3-yl)-3,3-dimethyl-6-(2-methylpyrimidin-5-yl)indolin-2-one] | 6.87 | –
Cc1ncc(-c2ccc3c(c2)N(c2cncc(S(=O)(=O)C4CC4)c2)C(=O)C3(C)C)cn1 [Example 8, 1-(5-(Cyclopropylsulfonyl)pyridin-3-yl)-3,3-dimethyl-6-(2-methylpyrimidin-5-yl)indolin-2-one] | 7.40 | –
CSc1cncc(N2C(=O)C(C)(C)c3ccc(-c4cnc(C)nc4)cc32)c1 [Example 9, 3,3-Dimethyl-6-(2-methylpyrimidin-5-yl)-1-(5-(methylthio)pyridin-3-yl)indolin-2-one] | 6.66 | –
Cc1ncc(-c2ccc3c(c2)N(c2cncc(S(N)(=O)=O)c2)C(=O)C3(C)C)cn1 [Example 10, 5-(3,3-Dimethyl-6-(2-methylpyrimidin-5-yl)-2-oxoindolin-1-yl)pyridine-3-sulfonamide] | 6.89 | –
Cc1ncc(-c2ccc3c(c2)N(c2cncc(S(=O)(=O)N4CCC4)c2)C(=O)C3(C)C)cn1 [Example 11, 1-(5-(Azetidin-1-ylsulfonyl)pyridin-3-yl)-3,3-dimethyl-6-(2-methylpyrimidin-5-yl)indolin-2-one] | 6.77 | –
COCCN(C)S(=O)(=O)c1cncc(N2C(=O)C(C)(C)c3ccc(-c4cnc(C)nc4)cc32)c1 [Example 12, 5-(3,3-dimethyl-6-(2-methylpyrimidin-5-yl)-2-oxoindolin-1-yl)-N-(2-methoxyethyl)-N-methylpyridine-3-sulfonamide] | 7.10 | –
CNS(=O)(=O)c1cncc(N2C(=O)C(C)(C)c3ccc(-c4cnc(C)nc4)cc32)c1 [Example 13, 5-(3,3-Dimethyl-6-(2-methylpyrimidin-5-yl)-2-oxoindolin-1-yl)-N-methylpyridine-3-sulfonamide] | 7.14 | –
